The source made the active and inactive calls. The calls are words filed in the database; no cut-off is given here.
Tests used:
[1] = tested on: SF-268; assay: Growth inhibition of human SF268 cells after 48 hrs by SRB assay; format: functional; conditions: SF-268, 48 h
[2] = tested on: IGROV-1; assay: Induction of apoptosis in human IGROV1 cells assessed as cleaved caspase-3 containing cells at 0.5 uM after 24 hrs by FACS analysis (reference value: 4%); format: functional
[3] = tested on: PC-3; assay: Cell cycle arrest in human PC3 cells assessed as accumulation at G1 phase at 15 uM after 24 hrs by propidium iodide staining based flow cytometry (reference value: 36%); format: functional
[4] = tested on: IGROV-1; assay: Induction of apoptosis in human IGROV1 cells assessed as cleaved caspase-3 containing cells at 15 uM after 24 hrs by FACS analysis (reference value: 4%); format: functional
[5] = tested on: BXPC-3; assay: Cell cycle arrest in human BxPC3 cells assessed as accumulation at G2 phase at 15 uM after 24 hrs by propidium iodide staining based flow cytometry (reference value: 12%); format: functional
[6] = tested on: BXPC-3; assay: Cell cycle arrest in human BxPC3 cells assessed as accumulation at S phase at 5 uM after 24 hrs by propidium iodide staining based flow cytometry (reference value: 33%); format: functional
[7] = tested on: BXPC-3; assay: Induction of apoptosis in human BxPC3 cells assessed as healthy cells at 0.5 uM after 24 hrs by Annexin V/7-AAD staining based flow cytometry (reference value: 77%); format: functional
[8] = tested on: BXPC-3; assay: Cell cycle arrest in human BxPC3 cells assessed as accumulation at >G2 phase at 15 uM after 24 hrs by propidium iodide staining based flow cytometry (reference value: 6%); format: functional
[9] = tested on: IGROV-1; assay: Induction of apoptosis in human IGROV1 cells assessed as early apoptotic cells at 0.5 uM after 24 hrs by Annexin V/7-AAD staining based flow cytometry (reference value: 9%); format: functional
[10] = tested on: U-251; assay: Cytotoxicity against human U251 cells after 48 hrs by trypan blue assay; format: functional, cell-based
[11] = tested on: Mus musculus; assay: Toxicity in SCID mouse assessed as mortality at 40 mg/kg, ip after 3 to 4 weeks chronic treatment; format: organism-based; design: dose 40 mg/kg, route intraperitoneal; conditions: in vivo
[12] = tested on: BXPC-3; assay: Cell cycle arrest in human BxPC3 cells assessed as accumulation at G1 phase at 0.5 uM after 24 hrs by propidium iodide staining based flow cytometry (reference value: 41%); format: functional
[13] = tested on: HCT-15; assay: Cytotoxicity against human HCT15 cells after 48 hrs by trypan blue assay; format: functional, cell-based
[14] = tested on: OVCAR-5; assay: Growth inhibition of human OVCAR5 cells after 48 hrs by SRB assay; format: functional; conditions: OVCAR-5, 48 h
[15] = tested on: IGROV-1; assay: Induction of apoptosis in human IGROV1 cells assessed as late apoptotic cells at 0.5 uM after 24 hrs by Annexin V/7-AAD staining based flow cytometry (reference value: 4%); format: functional
[16] = tested on: MIA PaCa-2; assay: Antitumor activity against human MIAPaCa2 cells xenografted in SCID mouse assessed as tumor weight at 70 mg/kg, ip for 3 consecutive days (reference value: 1225 +/- 308 mg); format: functional; conditions: route intraperitoneal
[17] = tested on: NHDF; assay: (§1) Growth inhibition of NHDF cells after 48 hrs by SRB assay; format: cell-based; conditions: human, nhdf, 48 h
[18] = as §1; format: cell-based; conditions: human, NHDF cells
[19] = tested on: BXPC-3; assay: Cell cycle arrest in human BxPC3 cells assessed as accumulation at S phase at 50 uM after 24 hrs by propidium iodide staining based flow cytometry (reference value: 33%); format: functional
[20] = tested on: BXPC-3; assay: Cell cycle arrest in human BxPC3 cells assessed as accumulation at >G2 phase at 5 uM after 24 hrs by propidium iodide staining based flow cytometry (reference value: 6%); format: functional
[21] = tested on: PC-3; assay: Induction of apoptosis in human PC3 cells assessed as early apoptotic cells at 5 uM after 24 hrs by Annexin V/7-AAD staining based flow cytometry (reference value: 5%); format: functional
[22] = tested on: IGROV-1; assay: Cell cycle arrest in human IGROV1 cells assessed as accumulation at >G2 phase at 5 uM after 24 hrs by propidium iodide staining based flow cytometry (reference value: 21%); format: functional
[23] = tested on: IGROV-1; assay: Induction of apoptosis in human IGROV1 cells assessed as late apoptotic cells at 15 uM after 24 hrs by Annexin V/7-AAD staining based flow cytometry (reference value: 4%); format: functional
[24] = tested on: BXPC-3; assay: Cell cycle arrest in human BxPC3 cells assessed as accumulation at >G2 phase at 0.5 uM after 24 hrs by propidium iodide staining based flow cytometry (reference value: 6%); format: functional
[25] = tested on: BXPC-3; assay: Induction of apoptosis in human BxPC3 cells assessed as cleaved caspase-3 containing cells at 50 uM after 24 hrs by FACS analysis (reference value: 10%); format: functional
[26] = tested on: IGROV-1; assay: Induction of apoptosis in human IGROV1 cells assessed as early apoptotic cells at 15 uM after 24 hrs by Annexin V/7-AAD staining based flow cytometry (reference value: 9%); format: functional
[27] = tested on: IGROV-1; assay: Cell cycle arrest in human IGROV1 cells assessed as accumulation at G1 phase at 5 uM after 24 hrs by propidium iodide staining based flow cytometry (reference value: 27%); format: functional
[28] = tested on: PC-3; assay: Induction of apoptosis in human PC3 cells assessed as early apoptotic cells at 50 uM after 24 hrs by Annexin V/7-AAD staining based flow cytometry (reference value: 5%); format: functional
[29] = tested on: PC-3; assay: Cell cycle arrest in human PC3 cells assessed as accumulation at G1 phase at 50 uM after 24 hrs by propidium iodide staining based flow cytometry (reference value: 36%); format: functional
[30] = tested on: BXPC-3; assay: Induction of apoptosis in human BxPC3 cells assessed as healthy cells at 50 uM after 24 hrs by Annexin V/7-AAD staining based flow cytometry (reference value: 77%); format: functional
[31] = tested on: PC-3; assay: Cell cycle arrest in human PC3 cells assessed as accumulation at < G1 phase at 15 uM after 24 hrs by propidium iodide staining based flow cytometry (reference value: 4%); format: functional
[32] = tested on: IGROV-1; assay: Induction of apoptosis in human IGROV1 cells assessed as early apoptotic cells at 5 uM after 24 hrs by Annexin V/7-AAD staining based flow cytometry (reference value: 9%); format: functional
[33] = tested on: BXPC-3; assay: Cell cycle arrest in human BxPC3 cells assessed as accumulation at < G1 phase at 0.5 uM after 24 hrs by propidium iodide staining based flow cytometry (reference value: 9%); format: functional
[34] = tested on: PC-3; assay: Induction of apoptosis in human PC3 cells assessed as late apoptotic cells at 0.5 uM after 24 hrs by Annexin V/7-AAD staining based flow cytometry (reference value: 2%); format: functional
[35] = tested on: HL-60(TB); assay: Growth inhibition of human HL-60(TB) cells after 48 hrs by SRB assay; format: functional; conditions: HL-60, 48 h
[36] = tested on: PC-3; assay: Induction of apoptosis in human PC3 cells assessed as healthy cells at 15 uM after 24 hrs by Annexin V/7-AAD staining based flow cytometry (reference value: 92%); format: functional
[37] = biological target: Sigma non-opioid intracellular receptor 1 (Homo sapiens, UniProt Q99720); assay: Displacement of [3H](+)pentazocine from sigma-1 receptor expressed in human Jurkat cell membranes after 2 hrs by liquid scintillation spectroscopy
Chain of Sigma non-opioid intracellular receptor 1 (Q99720 whole entry): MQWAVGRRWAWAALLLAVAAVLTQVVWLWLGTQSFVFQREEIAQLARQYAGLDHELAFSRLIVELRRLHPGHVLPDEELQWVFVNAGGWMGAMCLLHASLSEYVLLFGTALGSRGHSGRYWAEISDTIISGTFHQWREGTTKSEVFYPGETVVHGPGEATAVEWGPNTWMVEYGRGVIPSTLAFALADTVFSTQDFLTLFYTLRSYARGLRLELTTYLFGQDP

[38] = tested on: PC-3; assay: Cell cycle arrest in human PC3 cells assessed as accumulation at >G2 phase at 5 uM after 24 hrs by propidium iodide staining based flow cytometry (reference value: 6%); format: functional
[39] = read-out: LC50 (the source's name)

**Q.** With `CN1CCN(c2ccc(C(c3ccccc3)C34CC5CC(CC(C5)C3)C4)cc2)CC1` (stereo not given) as the compound, how does the GI50 [1] read?
**A.** 18.9 µM

**Q.** And the TGI [1]?
**A.** 61.6 µM

**Q.** And the CC50 [1, 39]?
**A.** 100 µM

**Q.** What about the Activity [2] of the same compound?
**A.** 5%

**Q.** What about the Activity [3] of the same compound?
**A.** 49%

**Q.** What about the Activity [4] of the same compound?
**A.** 30%

**Q.** And the Activity [5]?
**A.** 16%

**Q.** What about the Activity [6] of the same compound?
**A.** 30%

**Q.** What about the Activity [7] of the same compound?
**A.** 84%

**Q.** And the Activity [8]?
**A.** 5%

**Q.** And the Activity [9]?
**A.** 8%

**Q.** What about the Activity [10] of the same compound?
**A.** Active

**Q.** And the Activity [11]?
**A.** Non-toxic

**Q.** And the Activity [12]?
**A.** 37%

**Q.** What about the Activity [13] of the same compound?
**A.** Active

**Q.** And the GI50 [14]?
**A.** 8 µM

**Q.** What about the TGI [14] of the same compound?
**A.** 41.9 µM

**Q.** What about the CC50 [14, 39] of the same compound?
**A.** 94.5 µM

**Q.** And the Activity [15]?
**A.** 3%

**Q.** What about the Activity [16] of the same compound?
**A.** 642 mg

**Q.** What about the LC50 [17] of the same compound?
**A.** 100 µM

**Q.** And the TGI [17]?
**A.** 9.6 µM

**Q.** What about the GI50 at 48 h [18] of the same compound?
**A.** 5.3 µM

**Q.** What about the Activity [19] of the same compound?
**A.** 24%

**Q.** What about the Activity [20] of the same compound?
**A.** 8%

**Q.** And the Activity [21]?
**A.** 5%

**Q.** And the Activity [22]?
**A.** 21%

**Q.** And the Activity [23]?
**A.** 15%

**Q.** What about the Activity [24] of the same compound?
**A.** 8%

**Q.** And the Activity [25]?
**A.** 16%

**Q.** What about the Activity [26] of the same compound?
**A.** 18%

**Q.** What about the Activity [27] of the same compound?
**A.** 25%

**Q.** And the Activity [28]?
**A.** 24%

**Q.** What about the Activity [29] of the same compound?
**A.** 35%

**Q.** And the Activity [30]?
**A.** 26%

**Q.** What about the Activity [31] of the same compound?
**A.** 8%

**Q.** What about the Activity [32] of the same compound?
**A.** 8%

**Q.** And the Activity [33]?
**A.** 11%

**Q.** What about the Activity [34] of the same compound?
**A.** 1%

**Q.** And the GI50 [35]?
**A.** 5.04 µM

**Q.** What about the LC50 [35] of the same compound?
**A.** 78.5 µM

**Q.** What about the TGI [35] of the same compound?
**A.** 9.63 µM

**Q.** And the Activity [36]?
**A.** 89%

**Q.** And the IC50 [37]?
**A.** 0.0032 µM

**Q.** What about the Activity [38] of the same compound?
**A.** 5%
